# Data: the Kinase Knowledgebase extract (Sharma et al. 2016)
# Columns and labels:
# [1] = biological target: PIK3CA (human), P42336 [H1047R]; test: Assessment of PIK3CA(H1047R) Kinase Activity
# [2] = biological target: PIK3CG (human) (UniProt P48736); test: Assessment of PIK3CG Kinase Activity
# [3] = biological target: PIK3CA (human) (UniProt P42336); test: Assessment of PIK3CA Kinase Activity
# [4] = biological target: PIK3CB (Human) (UniProt P42338); test: Assessment of PIK3CB Kinase Activity
# [5] = biological target: PIK3CA (human), P42336 [E545K]; test: Assessment of PIK3CA(E545K) Kinase Activity
# PIK3CA (human), P42336 [E545K], sequence (P42336 whole entry E545K, looked up): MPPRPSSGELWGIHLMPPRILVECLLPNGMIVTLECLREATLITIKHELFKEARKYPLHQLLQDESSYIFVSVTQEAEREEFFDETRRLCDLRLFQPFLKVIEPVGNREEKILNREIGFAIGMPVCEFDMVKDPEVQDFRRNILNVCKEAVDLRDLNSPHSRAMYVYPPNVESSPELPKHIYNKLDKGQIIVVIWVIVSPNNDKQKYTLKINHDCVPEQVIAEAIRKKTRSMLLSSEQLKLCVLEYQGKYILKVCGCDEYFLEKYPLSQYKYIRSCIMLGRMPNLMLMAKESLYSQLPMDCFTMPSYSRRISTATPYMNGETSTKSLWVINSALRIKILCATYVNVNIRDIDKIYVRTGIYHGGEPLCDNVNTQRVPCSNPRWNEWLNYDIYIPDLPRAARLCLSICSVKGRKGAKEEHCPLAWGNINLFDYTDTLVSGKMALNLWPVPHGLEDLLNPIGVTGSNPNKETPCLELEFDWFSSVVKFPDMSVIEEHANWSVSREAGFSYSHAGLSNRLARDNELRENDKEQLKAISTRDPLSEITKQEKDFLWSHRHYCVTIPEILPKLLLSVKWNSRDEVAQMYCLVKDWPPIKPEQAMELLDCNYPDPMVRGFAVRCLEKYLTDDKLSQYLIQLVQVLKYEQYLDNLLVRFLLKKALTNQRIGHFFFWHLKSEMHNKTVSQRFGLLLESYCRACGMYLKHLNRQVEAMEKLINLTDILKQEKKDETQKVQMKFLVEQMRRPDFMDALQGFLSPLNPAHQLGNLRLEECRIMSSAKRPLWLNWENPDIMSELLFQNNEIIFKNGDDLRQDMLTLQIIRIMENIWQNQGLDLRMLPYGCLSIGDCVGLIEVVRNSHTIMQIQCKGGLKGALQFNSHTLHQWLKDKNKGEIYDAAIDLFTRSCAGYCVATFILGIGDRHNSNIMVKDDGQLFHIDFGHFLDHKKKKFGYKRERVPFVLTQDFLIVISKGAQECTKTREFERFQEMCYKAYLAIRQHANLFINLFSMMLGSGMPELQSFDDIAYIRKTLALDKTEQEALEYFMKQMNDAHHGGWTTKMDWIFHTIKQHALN
# PIK3CB (Human), sequence (P42338 whole entry, looked up): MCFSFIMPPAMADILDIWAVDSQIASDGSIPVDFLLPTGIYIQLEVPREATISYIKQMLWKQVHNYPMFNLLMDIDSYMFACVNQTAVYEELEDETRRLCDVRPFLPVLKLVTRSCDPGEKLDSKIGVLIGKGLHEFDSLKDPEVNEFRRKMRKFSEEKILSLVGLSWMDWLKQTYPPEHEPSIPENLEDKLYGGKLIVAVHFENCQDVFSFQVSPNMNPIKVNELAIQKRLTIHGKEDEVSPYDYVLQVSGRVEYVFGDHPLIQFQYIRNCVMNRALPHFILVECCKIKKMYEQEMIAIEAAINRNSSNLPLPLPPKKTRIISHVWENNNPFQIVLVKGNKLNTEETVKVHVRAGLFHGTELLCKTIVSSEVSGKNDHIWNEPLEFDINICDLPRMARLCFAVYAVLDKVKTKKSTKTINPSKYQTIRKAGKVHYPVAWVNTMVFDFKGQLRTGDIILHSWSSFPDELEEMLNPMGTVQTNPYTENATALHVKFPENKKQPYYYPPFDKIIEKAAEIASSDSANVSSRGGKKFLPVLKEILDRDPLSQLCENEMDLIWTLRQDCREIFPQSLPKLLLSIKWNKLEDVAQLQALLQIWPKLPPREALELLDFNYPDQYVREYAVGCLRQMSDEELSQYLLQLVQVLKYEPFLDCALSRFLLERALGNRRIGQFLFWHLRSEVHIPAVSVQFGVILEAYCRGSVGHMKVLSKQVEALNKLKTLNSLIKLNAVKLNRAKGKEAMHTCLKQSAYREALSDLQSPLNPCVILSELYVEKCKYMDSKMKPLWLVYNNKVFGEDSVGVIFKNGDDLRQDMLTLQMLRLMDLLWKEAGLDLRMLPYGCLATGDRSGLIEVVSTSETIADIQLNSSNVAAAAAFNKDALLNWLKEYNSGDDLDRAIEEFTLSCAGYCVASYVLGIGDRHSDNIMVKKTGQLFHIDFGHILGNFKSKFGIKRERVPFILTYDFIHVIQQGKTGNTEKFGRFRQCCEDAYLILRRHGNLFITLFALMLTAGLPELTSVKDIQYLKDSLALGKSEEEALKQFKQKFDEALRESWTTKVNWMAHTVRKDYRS
# PIK3CA (human), P42336 [H1047R], sequence (P42336 whole entry H1047R, looked up): as the sequence (P42336 whole entry E545K, looked up) above, with K545E, H1047R counted along it
# PIK3CG (human), sequence (P48736 whole entry, looked up): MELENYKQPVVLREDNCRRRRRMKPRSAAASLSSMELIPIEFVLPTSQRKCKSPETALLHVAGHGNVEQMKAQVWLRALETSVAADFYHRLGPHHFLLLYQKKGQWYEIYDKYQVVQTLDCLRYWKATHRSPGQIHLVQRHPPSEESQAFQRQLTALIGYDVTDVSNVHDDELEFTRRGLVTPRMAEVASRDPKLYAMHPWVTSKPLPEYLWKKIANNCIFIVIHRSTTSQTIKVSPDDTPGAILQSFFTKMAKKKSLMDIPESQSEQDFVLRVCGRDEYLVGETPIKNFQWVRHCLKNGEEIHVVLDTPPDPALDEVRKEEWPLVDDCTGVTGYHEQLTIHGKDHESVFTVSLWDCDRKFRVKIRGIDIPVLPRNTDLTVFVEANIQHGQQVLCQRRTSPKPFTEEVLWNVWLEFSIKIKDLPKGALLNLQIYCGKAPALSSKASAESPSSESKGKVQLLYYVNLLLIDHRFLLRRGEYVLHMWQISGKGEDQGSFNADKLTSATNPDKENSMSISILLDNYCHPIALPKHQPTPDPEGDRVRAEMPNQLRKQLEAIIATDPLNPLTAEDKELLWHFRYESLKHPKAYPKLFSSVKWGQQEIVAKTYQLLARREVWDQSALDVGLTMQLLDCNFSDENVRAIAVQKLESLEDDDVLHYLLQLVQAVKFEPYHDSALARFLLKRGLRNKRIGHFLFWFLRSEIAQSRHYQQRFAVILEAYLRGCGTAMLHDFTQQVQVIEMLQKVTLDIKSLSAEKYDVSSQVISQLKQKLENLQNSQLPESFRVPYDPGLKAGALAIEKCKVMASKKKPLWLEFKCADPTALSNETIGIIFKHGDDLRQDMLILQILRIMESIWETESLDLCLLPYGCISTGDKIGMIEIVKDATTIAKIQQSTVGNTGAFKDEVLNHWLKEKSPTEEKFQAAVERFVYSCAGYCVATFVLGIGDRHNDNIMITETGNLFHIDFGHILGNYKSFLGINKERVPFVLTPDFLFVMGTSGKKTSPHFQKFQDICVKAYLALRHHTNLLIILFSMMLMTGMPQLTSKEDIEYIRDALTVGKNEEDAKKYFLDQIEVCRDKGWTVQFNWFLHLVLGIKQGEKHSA
# PIK3CA (human), sequence (P42336 whole entry, looked up): as the sequence (P42336 whole entry E545K, looked up) above, with K545E counted along it
Compound,IC50 [1] [nM],IC50 [2] [nM],IC50 [3] [nM],IC50 [4] [nM],IC50 [5] [nM]
CN(C)C(=O)c1ccc(NC(=O)Nc2ccc(-c3nc(N4CCOCC4)c4ccc(-c5cccc(S(C)(=O)=O)c5)cc4n3)cn2)cc1F,< 50,< 500,< 50,< 50,< 50
CN(C)C(=O)c1ccc(NC(=O)Nc2ccc(-c3nc(N4CCOCC4)c4ncc(-c5cccnc5F)cc4n3)cn2)cc1,< 50,< 500,< 50,< 50,< 50
CN(C)C(=O)c1ccc(NC(=O)Nc2ccc(-c3nc(N4CCOCC4)c4ccc(-c5cccnc5F)cc4n3)cn2)cc1,< 50,< 500,< 50,< 50,< 50
CN(C)C(=O)c1ccc(NC(=O)Nc2ccc(-c3nc(N4CCOCC4)c4ncc(-c5cccc(S(C)(=O)=O)c5)cc4n3)cc2F)cc1,< 50,< 500,< 50,50 to 500,< 50
CN(C)C(=O)c1ccc(NC(=O)Nc2ccc(-c3nc(N4CCOCC4)c4ccc(-c5cccc(S(C)(=O)=O)c5)cc4n3)cn2)cc1,< 50,< 500,< 50,< 50,< 50
CN(C)C(=O)c1ccc(NC(=O)Nc2ccc(-c3nc(N4CCOCC4)c4ncc(-c5cccc(S(C)(=O)=O)c5)cc4n3)cn2)cc1,< 50,< 500,< 50,< 50,< 50
CN(C)C(=O)c1ccc(NC(=O)Nc2ccc(-c3nc(N4CCOCC4)c4cc(F)c(-c5cnn(C)c5)cc4n3)cn2)cc1,< 50,< 500,< 50,< 50,< 50
CN(C)C(=O)c1ccc(NC(=O)Nc2ccc(-c3nc(N4CCOCC4)c4ccc(-c5cccnc5F)cc4n3)cc2)c(F)c1,50 to 500,–,50 to 200,50 to 500,50 to 500
CN(C)C(=O)c1ccc(NC(=O)Nc2ccc(-c3nc(N4CCOCC4)c4ccc(-c5cccnc5F)cc4n3)cc2)cc1F,–,–,50 to 200,–,–
Cc1ccc(-c2ccc3c(N4CCOCC4)nc(-c4ccc(NC(=O)Nc5ccc(C(=O)N6CC[C@H](N(C)C)C6)cc5)cc4)nc3c2)o1,–,–,50 to 200,–,–
CN(C)C(=O)c1ccc(NC(=O)Nc2ccc(-c3nc(N4CCOCC4)c4ccc(-c5cccnc5F)cc4n3)c(F)c2)cc1,–,–,< 50,–,–
CN(C)C(=O)c1ccc(NC(=O)Nc2ccc(-c3nc(N4CCOCC4)c4ccc(-c5ccc(C#N)o5)cc4n3)c(F)c2)cc1,–,–,< 50,–,–
Cn1cc(-c2cnc3c(N4CCOCC4)nc(-c4ccc(NC(=O)Nc5ccc(C(N)=O)cc5)cc4)nc3c2)cn1,–,–,< 50,–,–
CN1CCN(C(=O)c2ccc(NC(=O)Nc3ccc(-c4nc(N5CCOCC5)c5ccc(-c6ccsc6)cc5n4)cc3)cc2)CC1,–,–,50 to 200,–,–
Cc1ccc(-c2cc3nc(-c4ccc(NC(=O)Nc5ccc(C(=O)N(C)C)cc5)cc4)nc(N4CCOCC4)c3cc2F)o1,–,–,50 to 200,–,–
CN(C)C(=O)c1ccc(NC(=O)Nc2ccc(-c3nc(N4CCOCC4)c4ncc(-c5cccnc5)cc4n3)cc2)c(F)c1,–,–,< 50,–,–
CN(C)C(=O)c1ccc(NC(=O)Nc2ccc(-c3nc(N4CCOCC4)c4ncc(-c5cnn(C)c5)cc4n3)cc2F)cc1,–,–,< 50,–,–
CC(=O)Nc1ccc(NC(=O)Nc2ccc(-c3nc(N4CCOCC4)c4ncc(-c5cccnc5F)cc4n3)cc2)cc1,–,–,< 50,–,–
CN(C)C(=O)c1ccc(NC(=O)Nc2ccc(-c3nc(N4CCOCC4)c4ccc(-c5cnn(C)c5)cc4n3)c(F)c2)cc1,–,–,50 to 200,–,–
Cc1noc(C)c1-c1ccc2c(N3CCOCC3)nc(-c3ccc(NC(=O)Nc4ccc(C(=O)N(C)C)cc4)c(F)c3)nc2c1,–,–,< 50,–,–
COc1ncc(-c2cnc3c(N4CCOCC4)nc(-c4ccc(NC(=O)Nc5ccc(C(=O)N(C)C)cc5F)cc4)nc3c2)cn1,–,–,< 50,–,–
CC(O)c1ccc(-c2cnc3c(N4CCOCC4)nc(-c4ccc(NC(=O)Nc5ccc(C(=O)N(C)C)cc5)c(F)c4)nc3c2)o1 (stereo unspecified),–,–,< 50,–,–
CN(C)C(=O)c1ccc(NC(=O)Nc2ccc(-c3nc(N4CCOCC4)c4ncc(-c5cnn(C)c5)cc4n3)c(F)c2)cc1,–,–,< 50,–,–
CN(C)C(=O)c1ccc(NC(=O)Nc2ccc(-c3nc(N4CCOCC4)c4ncc(-c5cnn(C)c5)cc4n3)cn2)cc1,–,–,< 50,–,–
CN(C)C(=O)c1ccc(NC(=O)Nc2ccc(-c3nc(N4CCOCC4)c4ncc(-c5ccc(CO)o5)cc4n3)cc2F)cc1,–,–,< 50,–,–
Cc1noc(C)c1-c1ccc2c(N3CCOCC3)nc(-c3ccc(NC(=O)Nc4ccc(C(=O)N(C)C)cc4)cc3F)nc2c1,–,–,50 to 200,–,–
CN(C)[C@H]1CCN(C(=O)c2ccc(NC(=O)Nc3ccc(-c4nc(N5CCOCC5)c5ccc(-c6cncnc6)cc5n4)cc3F)cc2)C1,–,–,< 50,–,–
CC(=O)Nc1ccc(NC(=O)Nc2ccc(-c3nc(N4CCOCC4)c4ncc(-c5cnn(C)c5)cc4n3)cc2)cc1,–,–,< 50,–,–

# The next lines start with the values.
IC50 [1] [nM],IC50 [2] [nM],IC50 [3] [nM],IC50 [4] [nM],IC50 [5] [nM],Compound
< 50,< 500,< 50,< 50,< 50,CN(C)C(=O)c1ccc(NC(=O)Nc2ccc(-c3nc(N4CCOCC4)c4ccc(-c5ccco5)cc4n3)cc2)cc1
50 to 500,< 500,< 50,50 to 500,50 to 500,CN(C)C(=O)c1ccc(NC(=O)Nc2ccc(-c3nc(N4CCOCC4)c4ccc(-c5cccnc5)cc4n3)cc2)c(F)c1
< 50,–,< 50,–,< 50,CN(C)C(=O)c1ccc(NC(=O)Nc2ccc(-c3nc(N4CCOCC4)c4ccc(-c5cncnc5)cc4n3)cc2)cc1
50 to 500,< 500,< 50,50 to 500,50 to 500,CN(C)C(=O)c1ccc(NC(=O)Nc2ccc(-c3nc(N4CCOCC4)c4ccc(-c5cncnc5)cc4n3)cc2)c(F)c1
–,–,< 50,–,–,CN(C)C(=O)c1ccc(NC(=O)Nc2ccc(-c3nc(N4CCOCC4)c4ncc(-c5cnc(N(C)C)nc5)cc4n3)cc2)cc1
–,–,< 50,–,–,CN(C)C(=O)c1ccc(NC(=O)Nc2ccc(-c3nc(N4CCOCC4)c4cc(F)c(-c5cncc(S(C)(=O)=O)c5)cc4n3)cc2)cc1
–,–,50 to 200,–,–,COc1cccc(-c2ccc3c(N4CCOCC4)nc(-c4ccc(NC(=O)Nc5ccc(C(=O)N(C)C)cc5)cc4)nc3c2)n1
–,–,< 50,–,–,CN(C)C(=O)c1ccc(NC(=O)Nc2ccc(-c3nc(N4CCOCC4)c4ccc(-c5cccc(NS(C)(=O)=O)c5)cc4n3)cc2)cc1
–,–,< 50,–,–,N[C@@H]1CCN(C(=O)c2ccc(NC(=O)Nc3ccc(-c4nc(N5CCOCC5)c5ccc(-c6cncnc6)cc5n4)cc3)cc2)C1
–,–,< 50,–,–,CN(C)C(=O)c1ccc(NC(=O)Nc2ccc(-c3nc(N4CCOCC4)c4ncc(-c5ccnnc5)cc4n3)cc2)cc1
–,–,50 to 200,–,–,CN(C)C(=O)c1ccc(NC(=O)Nc2ccc(-c3nc(N4CCOCC4)c4ccccc4n3)cc2)cc1
–,–,< 50,–,–,CN(C)C(=O)c1ccc(NC(=O)Nc2ccc(-c3nc(N4CCOCC4)c4ncc(-c5cnn(C)c5)cc4n3)cc2)cc1
–,–,< 50,–,–,CC1CN(c2nc(-c3ccc(NC(=O)Nc4ccc(C(=O)N(C)C)cc4)cc3)nc3cc(-c4cncnc4)ccc23)CCO1 (stereo unspecified)
–,–,50 to 200,–,–,CN(C)C(=O)c1ccc(NC(=O)Nc2ccc(-c3nc(N4CCOCC4)c4cccc(-c5ccc(F)nc5)c4n3)cc2)cc1
–,–,< 50,–,–,CN(C)C(=O)c1ccc(NC(=O)Nc2ccc(-c3nc(N4CCOCC4)c4cc(F)c(-c5cncnc5)cc4n3)cc2)cc1
–,–,< 50,–,–,CN(C)C(=O)c1ccc(NC(=O)Nc2ccc(-c3nc(N4CCOCC4)c4ncc(-c5cncnc5)cc4n3)cc2)cc1
–,–,50 to 200,–,–,CN(C)C(=O)c1ccc(NC(=O)Nc2ccc(-c3nc(N4CCOCC4)c4ccc(-c5ccoc5)cc4n3)cc2)cc1
–,–,< 50,–,–,CN(C)C(=O)c1ccc(NC(=O)Nc2ccc(-c3nc(N4CCOCC4)c4ccc(-c5cncnc5)cc4n3)cc2)cc1F
–,–,< 50,–,–,CN(C)C(=O)c1ccc(NC(=O)Nc2ccc(-c3nc(N4CCOCC4)c4ncc(-c5cncnc5)cc4n3)cc2)c(F)c1
–,–,< 50,–,–,COc1ccc2c(N3CCOCC3)nc(-c3ccc(NC(=O)Nc4ccc(C(=O)N(C)C)cc4)cc3)nc2c1
–,–,< 50,–,–,CN(C)C(=O)c1ccc(NC(=O)Nc2ccc(-c3nc(N4CCOCC4)c4ccc(-c5cncc(S(C)(=O)=O)c5)cc4n3)cc2)cc1
–,–,< 50,–,–,CN(C)C(=O)c1ccc(NC(=O)Nc2ccc(-c3nc(N4CCOCC4)c4ncc(-c5cncnc5)cc4n3)cc2)cc1F
–,–,50 to 200,–,–,Cc1ccc(-c2ccc3c(N4CCOCC4)nc(-c4ccc(NC(=O)Nc5ccc(C(=O)N(C)C)cc5)cc4)nc3c2)s1
< 50,500 to 1000,< 50,500 to 1000,< 50,Cc1ccc(-c2ccc3c(N4CCOCC4)nc(-c4ccc(NC(=O)Nc5ccc(C(=O)N(C)C)cc5)cc4)nc3c2)o1
